Results reported in US6596724B2, “Oxadiazole and thiadiazole derivatives of dihydropyridine NPY antagonists” (Bristol-Myers Squibb Company, priority 2000, dated 2003).
Values belong to the compound of their own block, whether it stands above or below them.

Legend:
[1] = tested on: NPY-induced contractions in guinea pig basilar artery; conditions: cited from earlier work
[2] = biological target: T1, I-125 Bolton-Hunter labeled NPY in human neuroblastoma cells (SK-N-MC) (Homo sapiens, UniProt P25929); conditions: cited from earlier work
T1 construct: displaces I-125 Bolton-Hunter labeled NPY in human neuroblastoma cells (SK-N-MC); host or cells: SK-N-MC human neuroblastoma cells (endogenous receptor)
T1 sequence (P25929 1-384): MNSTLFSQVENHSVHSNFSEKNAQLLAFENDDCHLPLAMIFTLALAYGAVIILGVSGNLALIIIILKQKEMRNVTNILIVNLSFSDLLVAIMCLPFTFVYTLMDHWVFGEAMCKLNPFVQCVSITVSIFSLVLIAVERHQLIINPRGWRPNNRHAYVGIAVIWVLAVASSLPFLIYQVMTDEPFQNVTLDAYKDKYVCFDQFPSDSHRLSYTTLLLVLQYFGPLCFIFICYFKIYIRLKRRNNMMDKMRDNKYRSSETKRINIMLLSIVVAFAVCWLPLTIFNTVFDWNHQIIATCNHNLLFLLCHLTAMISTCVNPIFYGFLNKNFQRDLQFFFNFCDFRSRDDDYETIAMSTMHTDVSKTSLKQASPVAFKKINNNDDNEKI

[3] = tested on: NPY-induced pressor response; conditions: pithed rat; cited from earlier work
[4] = tested on: NPY-induced increase in intracellular Ca++ in SK-N-MC cells; conditions: cited from earlier work
[5] = tested on: NPY-related increases in diastolic blood pressure; conditions: anesthetized guinea pig model; cited from earlier work
[6] = biological target: T2, I-125 labeled NPY and PYY in human neuroblastoma cells (Homo sapiens, UniProt P25929); conditions: cited from earlier work
T2 construct: displacing I-125 labeled NPY and PYY in human neuroblastoma cells
T2 sequence (P25929 1-384): T1 sequence (P25929 1-384)

melting point: 113 to 116 °C
Compound: COC(=O)C1=C(C)NC(C)=C(C(=O)OC)C1c1cccc(NC(=S)NNC(=O)CN2CCC(c3cccc(OC)c3)CC2)c1 [Example 20, 4-[3-[[[2-[[4-(3-Methoxyphenyl)-1-piperidinyl)acetyl]-hydrazino]-carbonothioyl]amino]phenyl]1,4-dihydro-2,6-dimethyl-3,5-pyridinedicarboxylic acid, dimethyl ester]

melting point: 125 to 130 °C
Compound: COC(=O)C1=C(C)NC(C)=C(C(=O)OC)C1c1cccc(NC(=S)NNC(=O)CN2CCC(c3ccccc3)CC2)c1 [Example 19, 4-[3-[[[2-[(4-Phenyl-1-piperidinyl)acetyl]-hydrazino]-carbonothioyl]amino]phenyl]1,4-dihydro-2,6-dimethyl-3,5-pyridinedicarboxylic acid, dimethyl ester]

melting point: 114 to 120 °C
Compound: COC(=O)C1=C(C)NC(C)=C(C(=O)OC)C1c1ccc(F)c(NC(=S)NNC(=O)CN2CCC(c3cccc(OC)c3)CC2)c1 [Example 22, 4-[4-Fluoro-3-[[[2-[[4-(3-methoxyphenyl)-1-piperidinyl]acetyl]-hydrazino]-carbonothioyl]amino]phenyl]1,4-dihydro-2,6-dimethyl-3,5-pyridinedicarboxylic acid, dimethyl ester]

melting point: 138 to 143 °C
Compound: COC(=O)C1=C(C)NC(C)=C(C(=O)OC)C1c1cccc(NC(=O)NNC(=O)CN2CCC(c3ccccc3)CC2)c1 [Example 18, 4-[3-[[[2-[(4-Phenyl-1-piperidinyl)acetyl]-hydrazino]-carbonyl]amino]phenyl]1,4-dihydro-2,6-dimethyl-3,5-pyridinedicarboxylic acid, dimethyl ester]

Compound: O=P(O)(O)OC1[C@H](OP(=O)(O)O)[C@H](O)C(O)[C@H](O)[C@H]1OP(=O)(O)O (stereo partly drawn) [D-Myo-inositol-1,2,6-triphosphate]
antagonism of NPY-induced contractions [1]: potent but non-competitive antagonist

Compound: NC(N)=NCCC[C@@H](NC(=O)C(c1ccccc1)c1ccccc1)C(=O)NCc1ccc(O)cc1 [BIBP 3226]
displacement of I-125 Bolton-Hunter labeled NPY [2]: displaces | antagonism of NPY-induced pressor response [3]: antagonizing | antagonism of NPY-induced increase in intracellular Ca++ [4]: antagonized

Compound: CN(C)CC1CCC(CN=C(N)c2ccc(C[C@@H](NC(=O)[C@@H](Cc3ccccc3)NS(=O)(=O)c3ccc4ccccc4c3)C(=O)N3CCCC3)cc2)CC1 (stereo partly shown) [SR 120819A]
antagonism of NPY-related increases in diastolic blood pressure [5]: antagonized | displacement of I-125 labeled NPY and PYY [6]: displacing
